Measured values reported in the kinase profiling compilation of Christmann-Franck et al. (2016).

Legend:
Assay in all cases: KINOMEscan competition binding
Conditions in all cases: compound 10.0 µM
LIMK2 (human) = LIMK2 (human) (UniProt P53671)
CASK (human) = CASK (human) (UniProt O14936)
TAOK2 (human) = TAOK2 (human) (UniProt Q9UL54)
MAP2K1 (human) = MAP2K1 (human) (UniProt Q02750)
SRC (human) = SRC (human) (UniProt P12931)
SRPK1 (human) = SRPK1 (human) (UniProt Q96SB4)
[1] = test system: MET (human), P08581 [Y1235D]
EIF2AK1 (human) = EIF2AK1 (human) (UniProt Q9BQI3)
CSNK2A2 (human) = CSNK2A2 (human) (UniProt P19784)
ROCK2 (human) = ROCK2 (human) (UniProt O75116)
PIM3 (human) = PIM3 (human) (UniProt Q86V86)
MARK1 (human) = MARK1 (human) (UniProt Q9P0L2)
EPHA8 (human) = EPHA8 (human) (UniProt P29322)
RPS6KA5 KD2 (human) = RPS6KA5 KD2 (human) (UniProt O75582)
MAP3K9 (human) = MAP3K9 (human) (UniProt P80192)
DDR2 (human) = DDR2 (human) (UniProt Q16832)
CLK1 (human) = CLK1 (human) (UniProt P49759)
MAP2K2 (human) = MAP2K2 (human) (UniProt P36507)
IRAK1 (human) = IRAK1 (human) (UniProt P51617)
DYRK1A (human) = DYRK1A (human) (UniProt Q13627)
AXL (human) = AXL (human) (UniProt P30530)
MAPK1 (human) = MAPK1 (human) (UniProt P28482)
MAP2K3 (human) = MAP2K3 (human) (UniProt P46734)
PAK1 (human) = PAK1 (human) (UniProt Q13153)
[2] = target: TYK2 JH2 pseudokinase (human) (UniProt P29597)
TNK2 (human) = TNK2 (human) (UniProt Q07912)
[3] = test system: RET (human), P07949 [V804M]
RET (human) = RET (human) (UniProt P07949)
EGFR (human) = EGFR (human) (UniProt P00533)
MST1R (human) = MST1R (human) (UniProt Q04912)
BRSK1 (human) = BRSK1 (human) (UniProt Q8TDC3)
MAPK12 (human) = MAPK12 (human) (UniProt P53778)
VRK2 (human) = VRK2 (human) (UniProt Q86Y07)
CHUK (human) = CHUK (human) (UniProt O15111)
FLT4 (human) = FLT4 (human) (UniProt P35916)
RIOK3 (human) = RIOK3 (human) (UniProt O14730)
CAMK2D (human) = CAMK2D (human) (UniProt Q13557)
CSNK2A1 (human) = CSNK2A1 (human) (UniProt P68400)
CSNK1A1 (human) = CSNK1A1 (human) (UniProt P48729)
SGK110 (human) = SGK110 (human) (UniProt P0C264)

Sequence of MST1R (human) (Q04912 whole entry, looked up): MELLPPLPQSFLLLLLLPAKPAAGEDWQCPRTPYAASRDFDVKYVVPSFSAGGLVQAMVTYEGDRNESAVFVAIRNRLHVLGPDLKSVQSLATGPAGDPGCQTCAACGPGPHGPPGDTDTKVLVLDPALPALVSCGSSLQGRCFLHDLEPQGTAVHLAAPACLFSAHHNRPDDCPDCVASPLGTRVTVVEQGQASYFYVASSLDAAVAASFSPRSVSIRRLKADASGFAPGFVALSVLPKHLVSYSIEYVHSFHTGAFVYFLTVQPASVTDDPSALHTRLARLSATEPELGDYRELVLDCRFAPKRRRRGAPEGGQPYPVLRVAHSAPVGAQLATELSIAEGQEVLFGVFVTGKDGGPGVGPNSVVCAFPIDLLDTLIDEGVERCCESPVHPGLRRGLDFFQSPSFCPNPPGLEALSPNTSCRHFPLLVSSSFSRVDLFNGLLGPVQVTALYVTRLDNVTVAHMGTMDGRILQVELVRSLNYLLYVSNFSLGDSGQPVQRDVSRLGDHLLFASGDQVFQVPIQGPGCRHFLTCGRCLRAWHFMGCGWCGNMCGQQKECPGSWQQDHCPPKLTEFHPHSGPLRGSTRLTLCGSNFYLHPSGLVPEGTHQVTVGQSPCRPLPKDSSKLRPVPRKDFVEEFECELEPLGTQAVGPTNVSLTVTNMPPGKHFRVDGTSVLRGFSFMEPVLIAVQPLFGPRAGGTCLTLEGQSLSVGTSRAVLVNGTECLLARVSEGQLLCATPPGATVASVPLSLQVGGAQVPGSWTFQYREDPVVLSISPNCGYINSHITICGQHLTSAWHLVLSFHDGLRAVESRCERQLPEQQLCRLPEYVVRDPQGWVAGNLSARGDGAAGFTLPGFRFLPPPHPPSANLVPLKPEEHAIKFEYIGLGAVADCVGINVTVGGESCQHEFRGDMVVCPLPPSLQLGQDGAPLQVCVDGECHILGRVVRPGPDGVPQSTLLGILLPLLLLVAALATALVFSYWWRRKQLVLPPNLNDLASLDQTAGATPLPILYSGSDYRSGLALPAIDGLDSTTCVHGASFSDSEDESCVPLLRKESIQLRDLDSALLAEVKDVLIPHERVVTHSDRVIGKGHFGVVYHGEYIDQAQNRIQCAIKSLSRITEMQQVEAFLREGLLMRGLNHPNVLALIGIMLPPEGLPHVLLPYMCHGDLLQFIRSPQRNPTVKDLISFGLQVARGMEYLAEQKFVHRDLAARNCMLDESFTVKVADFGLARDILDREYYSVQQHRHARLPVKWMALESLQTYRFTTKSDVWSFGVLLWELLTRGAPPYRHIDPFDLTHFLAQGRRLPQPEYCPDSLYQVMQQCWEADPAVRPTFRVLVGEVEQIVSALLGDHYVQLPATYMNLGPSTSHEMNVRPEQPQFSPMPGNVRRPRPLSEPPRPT
Sequence of RET (human) (P07949 whole entry, looked up): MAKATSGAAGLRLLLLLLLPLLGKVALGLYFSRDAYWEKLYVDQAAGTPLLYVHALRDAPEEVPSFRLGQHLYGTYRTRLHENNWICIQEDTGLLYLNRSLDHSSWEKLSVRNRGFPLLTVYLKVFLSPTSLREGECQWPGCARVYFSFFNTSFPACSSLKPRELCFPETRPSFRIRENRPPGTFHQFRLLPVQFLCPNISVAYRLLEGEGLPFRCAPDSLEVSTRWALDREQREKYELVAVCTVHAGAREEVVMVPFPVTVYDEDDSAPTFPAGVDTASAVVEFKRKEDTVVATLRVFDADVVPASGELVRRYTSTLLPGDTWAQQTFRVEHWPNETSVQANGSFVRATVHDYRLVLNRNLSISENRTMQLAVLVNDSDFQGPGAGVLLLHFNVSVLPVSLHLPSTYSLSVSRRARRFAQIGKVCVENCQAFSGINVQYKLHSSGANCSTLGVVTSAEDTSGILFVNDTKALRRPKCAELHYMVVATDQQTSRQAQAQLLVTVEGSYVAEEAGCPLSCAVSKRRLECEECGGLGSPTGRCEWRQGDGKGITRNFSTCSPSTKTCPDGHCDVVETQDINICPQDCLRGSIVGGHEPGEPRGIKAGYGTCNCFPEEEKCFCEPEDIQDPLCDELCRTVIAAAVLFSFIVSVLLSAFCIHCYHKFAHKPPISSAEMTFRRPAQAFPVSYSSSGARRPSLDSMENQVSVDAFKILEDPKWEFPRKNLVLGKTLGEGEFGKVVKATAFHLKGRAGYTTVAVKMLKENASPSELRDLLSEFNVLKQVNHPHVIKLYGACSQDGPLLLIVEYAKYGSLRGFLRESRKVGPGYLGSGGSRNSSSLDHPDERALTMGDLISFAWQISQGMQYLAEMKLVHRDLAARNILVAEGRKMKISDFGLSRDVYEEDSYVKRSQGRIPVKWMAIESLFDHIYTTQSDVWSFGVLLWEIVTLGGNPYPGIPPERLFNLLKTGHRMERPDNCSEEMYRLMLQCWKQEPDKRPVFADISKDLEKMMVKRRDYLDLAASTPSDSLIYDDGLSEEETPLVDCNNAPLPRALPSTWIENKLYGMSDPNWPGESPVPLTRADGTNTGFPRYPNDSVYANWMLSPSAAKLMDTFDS
Sequence of CLK1 (human) (P49759 whole entry, looked up): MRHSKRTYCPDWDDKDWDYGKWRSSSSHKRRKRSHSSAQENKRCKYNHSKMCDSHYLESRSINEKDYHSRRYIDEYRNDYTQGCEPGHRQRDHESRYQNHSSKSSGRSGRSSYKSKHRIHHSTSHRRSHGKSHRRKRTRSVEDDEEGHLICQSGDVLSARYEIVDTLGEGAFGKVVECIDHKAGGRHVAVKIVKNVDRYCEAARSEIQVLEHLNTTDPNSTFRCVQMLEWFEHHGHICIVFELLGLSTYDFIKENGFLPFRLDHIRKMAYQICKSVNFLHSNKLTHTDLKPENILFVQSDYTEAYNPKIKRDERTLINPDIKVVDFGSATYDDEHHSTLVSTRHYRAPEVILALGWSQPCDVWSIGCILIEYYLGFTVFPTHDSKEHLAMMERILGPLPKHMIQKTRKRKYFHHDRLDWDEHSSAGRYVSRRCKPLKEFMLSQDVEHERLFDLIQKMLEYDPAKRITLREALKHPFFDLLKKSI
Sequence of MAPK12 (human) (P53778 whole entry, looked up): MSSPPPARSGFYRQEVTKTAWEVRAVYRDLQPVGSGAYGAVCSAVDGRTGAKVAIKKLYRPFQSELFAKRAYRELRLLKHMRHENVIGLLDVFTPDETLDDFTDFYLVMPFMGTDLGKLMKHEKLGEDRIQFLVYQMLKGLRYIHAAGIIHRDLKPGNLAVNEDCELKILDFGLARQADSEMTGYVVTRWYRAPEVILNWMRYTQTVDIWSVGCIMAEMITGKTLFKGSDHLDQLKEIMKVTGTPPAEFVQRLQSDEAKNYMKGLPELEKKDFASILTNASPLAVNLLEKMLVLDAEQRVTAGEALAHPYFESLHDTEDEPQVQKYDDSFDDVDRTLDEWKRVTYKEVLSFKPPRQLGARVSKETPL
Sequence of IRAK1 (human) (P51617 whole entry, looked up): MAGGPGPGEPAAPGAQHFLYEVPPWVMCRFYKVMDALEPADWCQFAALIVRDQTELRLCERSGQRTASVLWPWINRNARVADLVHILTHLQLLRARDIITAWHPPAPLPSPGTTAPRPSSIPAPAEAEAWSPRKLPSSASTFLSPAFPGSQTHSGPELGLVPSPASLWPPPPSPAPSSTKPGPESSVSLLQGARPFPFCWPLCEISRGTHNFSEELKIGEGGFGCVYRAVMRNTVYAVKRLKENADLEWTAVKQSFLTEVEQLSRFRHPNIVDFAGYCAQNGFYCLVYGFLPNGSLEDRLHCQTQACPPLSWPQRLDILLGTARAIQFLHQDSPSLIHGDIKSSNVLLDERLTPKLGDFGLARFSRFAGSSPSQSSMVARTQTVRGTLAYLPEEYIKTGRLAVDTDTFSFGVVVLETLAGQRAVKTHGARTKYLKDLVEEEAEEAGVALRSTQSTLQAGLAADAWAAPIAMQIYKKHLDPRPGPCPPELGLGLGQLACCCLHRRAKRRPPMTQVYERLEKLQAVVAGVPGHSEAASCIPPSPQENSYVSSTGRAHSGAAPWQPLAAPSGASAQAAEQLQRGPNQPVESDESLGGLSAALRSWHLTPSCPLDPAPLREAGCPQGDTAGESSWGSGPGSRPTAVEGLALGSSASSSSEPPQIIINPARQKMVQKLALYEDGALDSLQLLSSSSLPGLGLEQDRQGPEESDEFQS
Sequence of CSNK1A1 (human) (P48729 whole entry, looked up): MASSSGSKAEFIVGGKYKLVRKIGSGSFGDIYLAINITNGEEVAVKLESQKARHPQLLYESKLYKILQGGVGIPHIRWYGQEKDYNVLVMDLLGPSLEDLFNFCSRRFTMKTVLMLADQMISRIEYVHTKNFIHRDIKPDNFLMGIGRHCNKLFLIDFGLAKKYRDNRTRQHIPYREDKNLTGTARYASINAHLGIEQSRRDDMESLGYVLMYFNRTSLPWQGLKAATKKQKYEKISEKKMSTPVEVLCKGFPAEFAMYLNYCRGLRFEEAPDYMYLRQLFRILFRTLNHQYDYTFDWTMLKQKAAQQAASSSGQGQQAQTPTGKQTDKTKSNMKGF
Sequence of SRPK1 (human) (Q96SB4 whole entry, looked up): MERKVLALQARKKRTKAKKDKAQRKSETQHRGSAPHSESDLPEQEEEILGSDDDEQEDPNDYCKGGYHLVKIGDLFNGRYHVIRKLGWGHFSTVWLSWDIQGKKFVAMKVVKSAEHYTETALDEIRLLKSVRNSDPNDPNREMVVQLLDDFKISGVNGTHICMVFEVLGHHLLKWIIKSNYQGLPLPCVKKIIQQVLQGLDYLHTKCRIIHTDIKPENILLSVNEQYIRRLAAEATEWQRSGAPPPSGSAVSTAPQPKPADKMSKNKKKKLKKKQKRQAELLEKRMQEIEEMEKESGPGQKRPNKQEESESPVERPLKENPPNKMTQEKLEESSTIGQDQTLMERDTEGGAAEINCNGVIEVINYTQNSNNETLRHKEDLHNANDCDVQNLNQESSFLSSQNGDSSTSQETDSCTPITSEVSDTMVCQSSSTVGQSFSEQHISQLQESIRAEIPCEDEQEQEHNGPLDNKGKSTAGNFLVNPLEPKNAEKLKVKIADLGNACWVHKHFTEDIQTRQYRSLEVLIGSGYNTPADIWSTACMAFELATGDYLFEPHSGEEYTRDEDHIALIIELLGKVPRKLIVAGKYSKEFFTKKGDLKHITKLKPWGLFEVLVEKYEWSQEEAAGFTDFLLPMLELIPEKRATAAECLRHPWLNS

CCN1CCN(C(=O)Cc2ccc(Nc3ncc(F)c(Nc4ccc(C(=O)Nc5ccccc5Cl)cc4)n3)cc2)CC1
kinase still bound, per cent of control (LIMK2 (human)): 30%
kinase still bound, per cent of control (CASK (human)): 82%
kinase still bound, per cent of control (TAOK2 (human)): 56%
kinase still bound, per cent of control (MAP2K1 (human)): 76%
kinase still bound, per cent of control (SRC (human)): 18%
kinase still bound, per cent of control (SRPK1 (human)): 1.9%
kinase still bound, per cent of control [1]: 23%
kinase still bound, per cent of control (EIF2AK1 (human)): 66%
kinase still bound, per cent of control (CSNK2A2 (human)): 7.8%
kinase still bound, per cent of control (ROCK2 (human)): 75%
kinase still bound, per cent of control (PIM3 (human)): 67%
kinase still bound, per cent of control (MARK1 (human)): 51%
kinase still bound, per cent of control (EPHA8 (human)): 63%
kinase still bound, per cent of control (RPS6KA5 KD2 (human)): 66%
kinase still bound, per cent of control (MAP3K9 (human)): 17%
kinase still bound, per cent of control (DDR2 (human)): 100%
kinase still bound, per cent of control (CLK1 (human)): 22%
kinase still bound, per cent of control (MAP2K2 (human)): 57%
kinase still bound, per cent of control (IRAK1 (human)): 22%
kinase still bound, per cent of control (DYRK1A (human)): 47%
kinase still bound, per cent of control (AXL (human)): 2.1%
kinase still bound, per cent of control (MAPK1 (human)): 100%
kinase still bound, per cent of control (MAP2K3 (human)): 57%
kinase still bound, per cent of control (PAK1 (human)): 53%
kinase still bound, per cent of control [2]: 12%
kinase still bound, per cent of control (TNK2 (human)): 10%
kinase still bound, per cent of control [3]: 4.6%
kinase still bound, per cent of control (RET (human)): 1.8%
kinase still bound, per cent of control (EGFR (human)): 26%
kinase still bound, per cent of control (MST1R (human)): 100%
kinase still bound, per cent of control (BRSK1 (human)): 88%
kinase still bound, per cent of control (MAPK12 (human)): 100%
kinase still bound, per cent of control (VRK2 (human)): 100%
kinase still bound, per cent of control (CHUK (human)): 84%
kinase still bound, per cent of control (FLT4 (human)): 7.6%
kinase still bound, per cent of control (RIOK3 (human)): 0.2%
kinase still bound, per cent of control (CAMK2D (human)): 71%
kinase still bound, per cent of control (CSNK2A1 (human)): 18%
kinase still bound, per cent of control (CSNK1A1 (human)): 96%
kinase still bound, per cent of control (SGK110 (human)): 40%
